Results taken from patent US20220177511A1, “SERIES OF HALOGENATED TETRACYCLIC TRITERPENE DERIVATIVES AND THEIR PREPARATION AND APPLICATION” (SHANGHAI KING-X BIOTECH CO., LTD, priority 2019, published 2022).
Converted amounts (≈) assume the structure as drawn.

Legend:
[1] = Pharmacokinetics of parent HHQ16 after single intragastric administration of compound 2 prodrugs in rats; format: in vivo, rat; conditions: HHQ16 (parent) measured in rats after single intragastric 10 mg/kg of prodrug (dose converted to HHQ16)
Description: 1. The materials and methods for oral absorption test are the same as described in example 44.
The pharmacokinetic parameters of HHQ16 measured after a single intragastric administration of 10 mg/kg of compound 2 prodrug in rats are summarized in Table 2 below.
The half-life was prolonged to varying degrees.

[2] = Solubility test in water and FaSSIF; format: physicochemical; conditions: 37° C., up to 24 hours
[3] = Metabolic stability in human liver microsomes; format: in vitro ADME; conditions: 5 μM compound, 1 mg/mL microsomes, 37° C.
Description: Preparation of the test sample: Compound 1 (prepared in Example 5), 2 (prepared in Example 4), and 5 (cycloastragenol, purchased from Chengdu Jintaihe Company) were dissolved with an appropriate amount of DMSO to obtain a concentration of 10 mM solution.
1) The compound was diluted with DMSO to 0.5 mM, and diluted to 1/20 with PBS before the experiment.
2) Human liver microsomes and potassium phosphate buffer were added to the EP tube respectively and mixed by gentle shaking.
3) Pre-incubate the EP tube in a metal bath at 37° C. for 5 minutes. 4) Compound 1, 2 or 5 were added and incubated at 37° C.
5) Take 100 μl of sample from the tube at 0, 60, 120, 240, and 360 minutes respectively, and add the sample to the stop tube (containing 100 μl of cooled acetonitrile solution). The mixture was shaken vigorously to terminate the reaction and then placed it in a −30° C. refrigerator until analysis.
6) Centrifuge at 14300 r/min and 4° C. for 10 minutes, aspirate the supernatant and place it in a −30° C. refrigerator until analysis.
Column: Shim-pack XR-ODS II, 2.0×75 mm; mobile phase: mobile phase B: aqueous solution containing 0.2% formic acid; mobile phase A: acetonitrile solution; mobile phase ratio: […]

C57 mouse CHF model = test: In vivo efficacy on chronic heart failure in mice (coronary artery ligation, echocardiography), enalapril control; conditions: positive control 2 mg/kg, p<0.0001 (FIG. 6)
Description: C57 mouse coronary artery ligation method was used in this experiment to prepare the mouse CHF model. The differences in echocardiography, hemodynamics and histopathology of the model were observed after administration. Test substance: compound 2. Solvent: 0.3% sodium carboxymethyl cellulose. Dosage: 1 mg/kg, 3 mg/kg, 10 mg/kg, 30 mg/kg and 100 mg/kg. Route of administration: intragastric. Control drug: enalapril 2 mg/kg. Strain: C57 mouse; Age: 7 weeks; Weight: 18-20 g; Gender: Male; Grade: SPF C57 mouse CHF model was established by coronary artery ligation method in this experiment. The differences in echocardiography, hemodynamics and histopathology of the model were observed after administration. 5 dose groups were set for compound 2 in this experiment. Enalapril was selected as the positive control. Once daily for 28 consecutive days. The doses for each group was 1 mg/kg, 3 mg/kg, 10 mg/kg, 30 mg/kg and 100 mg/kg. Positive control group: Enalapril (2 mg/kg) was administered after CHF was established. The mice were anesthetized in a box filled with isoflurane. After the mice were anesthetized, the left 4th intercostal space was opened to expose the left atrial appendage and left ventricle. It can be seen that the left coronary artery runs downward from the middle of the left atrial appendage to the anterior wall of the left ventricle. The coronary artery is sutured at a high position about 1 mm from the lower border of the left atrial appendage. After ligation, the myocardium gradually changes from fleshy red to pale white, indicating myocardial infarction. The model is successfully established, and the chest is closed layer by layer. After the spontaneous breathing of the mice recovered, the mice were caged and reared in a day-night cycle with free access to water and food. After being reared for 30 days, the chronic heart failure model was detected by echocardiography, and the mice with successful chronic heart failure model were selected. Qualified CHF mice screened by echocardiography were randomly grouped. Mice were given compound 2 by intragastric administration once daily for 28 consecutive days. The body weight of mice was measured every week, and echocardiography was performed after 28 days of administration. After the […] anesthetized, 1 mm^3 tissue was taken from the hearts of 3 mice in each group, fixed with electron microscope fixative, and detected by transmission electron microscope to observe the ultrastructure of the heart. All remaining heart tissues were fixed with 10% formaldehyde, and stained with HE for histopathology to observe histopathological changes.

## CC(C)(O)[C@@H]1CC[C@@](C)([C@H]2[C@@H](O)C[C@@]3(C)[C@@H]4C[C@H](OC(=O)C[C@H]5CCCN5)[C@H]5C(C)(C)C(F)(F)CC[C@@]56C[C@@]46CC[C@]23C)O1.Cl [Compound 2-3, (R)-2-(2-(((2aR,3R,4S,5aS,5bS,7S,7aR,11aR,12aS)-9,9-difluoro-4-hydroxy-3-((2S,5S)-5-(2-hydroxypropan-2-yl)-2-methyltetrahydrofuran-2-yl)-2a,5a,8,8-tetramethyltetradecahydro-1H,12H-cyclopenta[a]cyclopropa[e]phenanthren-7-yl)oxy)-2-oxoethyl)pyrrolidin-1-ium Chloride]
[1]
  AUC0-t: 3200 ng·h/mL
  Cmax: 460 ng/mL
  t1/2: 3.98 h
[2]; FaSSIF (pH 6.5)
  Solubility: 1.8 mg/mL
[2]; Water
  Solubility: 0.95 mg/mL

## Br.CC(C)(O)C1CCC(C)(C2C(O)CC3(C)C4CC(OC(=O)CN)C5C(C)(C)C(F)(F)CCC56CC46CCC23C)O1 [Compound 2-16, 2-(((2aR,3R,4S,5aS,5bS,7S,7aR,11aR,12aS)-9,9-difluoro-4-hydroxy-3-((2S,5S)-5-(2-hydroxypropan-2-yl)-2-methyltetrahydrofuran-2-yl)-2a,5a,8,8-tetramethyltetradecahydro-1H,12H-cyclopenta[a]cyclopropa[e]phenanthren-7-yl)oxy)-2-oxoethan-1-aminium Bromide]
[1]
  AUC0-t: 4623 ng·h/mL
  Cmax: 510 ng/mL
  t1/2: 5.2 h
[2]; FaSSIF (pH 6.5)
  Solubility: 5.3 mg/mL
[2]; Water
  Solubility: 0.95 mg/mL

## CC(C)(O)[C@@H]1CC[C@@](C)([C@H]2[C@@H](O)C[C@@]3(C)[C@@H]4C[C@H](OC(=O)[C@@H](N)CO)[C@H]5C(C)(C)C(F)(F)CC[C@@]56C[C@@]46CC[C@]23C)O1.Cl [Compound 2-19, (S)-1-(((2aR,3R,4S,5aS,5bS,7S,7aR,11aR,12aS)-9,9-difluoro-4-hydroxy-3-((2S,5S)-5-(2-hydroxypropan-2-yl)-2-methyltetrahydrofuran-2-yl)-2a,5a,8,8-tetramethyltetradecahydro-1H,12H-cyclopenta[a]cyclopropa[e]phenanthren-7-yl)oxy)-3-hydroxy-1-oxopropan-2-aminium chloride]
[1]
  AUC0-t: 4400 ng·h/mL
  Cmax: 602 ng/mL
  t1/2: 3.5 h
[2]; FaSSIF (pH 6.5)
  Solubility: 3.98 mg/mL
[2]; Water
  Solubility: 1.24 mg/mL

## CC(O)C(N)C(=O)OC1CC2C3(C)CC(O)C(C4(C)CCC(C(C)(C)O)O4)C3(C)CCC23CC32CCC(F)(F)C(C)(C)C12.Cl [Compound 2-20, (2S,3S)-1-(((2aR,3R,4S,5aS,5bS,7S,7aR,11aR,12aS)-9,9-difluoro-4-hydroxy-3-((2S,5S)-5-(2-hydroxypropan-2-yl)-2-methyltetrahydrofuran-2-yl)-2a,5a,8,8-tetramethyltetradecahydro-1H,12H-cyclopenta[a]cyclopropa[e]phenanthren-7-yl)oxy)-3-hydroxy-1-oxobutan-2-aminium Chloride]
[1]
  AUC0-t: 4005 ng·h/mL
  Cmax: 582 ng/mL
  t1/2: 3.6 h
[2]; FaSSIF (pH 6.5)
  Solubility: 2.8 mg/mL
[2]; Water
  Solubility: 1.2 mg/mL

## CC(C)(O)[C@@H]1CC[C@@](C)([C@H]2[C@@H](O)C[C@@]3(C)[C@@H]4C[C@H](OC(=O)CNC(=O)CN)[C@H]5C(C)(C)C(F)(F)CC[C@@]56C[C@@]46CC[C@]23C)O1.Cl [Compound 2-27, 2-((2-(((2aR,3R,4S,5aS,5bS,7S,7aR,11aR,12aS)-9,9-difluoro-4-hydroxy-3-((2S,5S)-5-(2-hydroxypropan-2-yl)-2-methyltetrahydrofuran-2-yl)-2a,5a,8,8-tetramethyltetradecahydro-1H,12H-cyclopenta[a]cyclopropa[e]phenanthren-7-yl)oxy)-2-oxoethyl)amino)-2-oxoethan-1-aminium Chloride]
[1]
  AUC0-t: 3005 ng·h/mL
  Cmax: 358 ng/mL
  t1/2: 7.5 h
[2]; FaSSIF (pH 6.5)
  Solubility: 4.3 mg/mL
[2]; Water
  Solubility: 1.3 mg/mL

## CN(CC(=O)OC1CC2C3(C)CC(O)C(C4(C)CCC(C(C)(C)O)O4)C3(C)CCC23CC32CCC(F)(F)C(C)(C)C12)C(=O)C(N)Cc1ccccc1.Cl [Compound 2-28, (R)-1-((2-(((2aR,3R,4S,5aS,5bS,7S,7aR,11aR,12aS)-9,9-difluoro-4-hydroxy-3-((2S,5S)-5-(2-hydroxypropan-2-yl)-2-methyltetrahydrofuran-2-yl)-2a,5a,8,8-tetramethyltetradecahydro-1H,12H-cyclopenta[a]cyclopropa[e]phenanthren-7-yl)oxy)-2-oxoethyl)(methyl)amino)-1-oxo-3-phenylpropan-2-aminium Chloride]
[1]
  AUC0-t: 4332 ng·h/mL
  Cmax: 475 ng/mL
  t1/2: 6.2 h
[2]; FaSSIF (pH 6.5)
  Solubility: 2.85 mg/mL
[2]; Water
  Solubility: 0.65 mg/mL

## CC(N)C(=O)N(C)CC(=O)OC1CC2C3(C)CC(O)C(C4(C)CCC(C(C)(C)O)O4)C3(C)CCC23CC32CCC(F)(F)C(C)(C)C12.Cl [Compound 2-29, (S)-1-((2-(((2aR,3R,4S,5aS,5bS,7S,7aR,11aR,12aS)-9,9-difluoro-4-hydroxy-3-((2S,5S)-5-(2-hydroxypropan-2-yl)-2-methyltetrahydrofuran-2-yl)-2a,5a,8,8-tetramethyltetradecahydro-1H,12H-cyclopenta[a]cyclopropa[e]phenanthren-7-yl)oxy)-2-oxoethyl)(methyl)amino)-1-oxopropan-2-aminium Chloride]
[1]
  AUC0-t: 5221 ng·h/mL
  Cmax: 605 ng/mL
  t1/2: 5.6 h
[2]; FaSSIF (pH 6.5)
  Solubility: 3.13 mg/mL
[2]; Water
  Solubility: 0.95 mg/mL

## CC(C)(O)[C@@H]1CC[C@@](C)([C@H]2[C@@H](O)C[C@@]3(C)[C@@H]4C[C@H](OC(=O)CNC(=O)[C@@H](N)CO)[C@H]5C(C)(C)C(F)(F)CC[C@@]56C[C@@]46CC[C@]23C)O1.Cl [Compound 2-31, (S)-1-((2-(((2aR,3R,4S,5aS,5bS,7S,7aR,11aR,12aS)-9,9-difluoro-4-hydroxy-3-((2S,5S)-5-(2-hydroxypropan-2-yl)-2-methyltetrahydrofuran-2-yl)-2a,5a,8,8-tetramethyltetradecahydro-1H,12H-cyclopenta[a]cyclopropa[e]phenanthren-7-yl)oxy)-2-oxoethyl)amino)-3-hydroxy-1-oxopropan-2-aminium Chloride]
[1]
  AUC0-t: 3888 ng·h/mL
  Cmax: 403 ng/mL
  t1/2: 4.5 h
[2]; FaSSIF (pH 6.5)
  Solubility: 6.25 mg/mL
[2]; Water
  Solubility: 1.65 mg/mL

## CC(C)(O)[C@@H]1CC[C@](C)([C@H]2[C@@H](O)C[C@@]3(C)[C@@H]4C[C@H](O)[C@H]5C(C)(C)[C@@H](O)CC[C@@]56C[C@@]46CC[C@]23C)O1 [Compound 5, (2aR,3R,4S,5aS,5bS,7S,7aR,9S,11aR,12aS)-3-((2S,5S)-5-(2-hydroxypropan-2-yl)-2-methyltetrahydrofuran-2-yl)-2a,5a,8,8-tetramethyltetradecahydro-1H,12H-cyclopenta[a]cyclopropa[e]phenanthrene-4,7,9-triol, reference compound]
[2]; FaSSIF (pH 6.5)
  Solubility: 0.049 mg/mL (≈ 99.9 µM)
[2]; Water
  Solubility: 0.008 mg/mL (≈ 16.3 µM)
[3]
  Metabolic half-life of human liver microsomes: 18.5 min

## CCOC(=O)[C@H](CCc1ccccc1)N[C@@H](C)C(=O)N1CCC[C@H]1C(=O)O [Enalapril, reference compound]
C57 mouse CHF model
  Cardiac output per minute (CO), day 28 vs day 0: very significant increase
